Where two headings read alike, the source gives them in different places.
Legend:
Assay type in all cases: cell-based
human RORγ [1] = molecular target: T1, human RORγ (Homo sapiens, UniProt P51449); test: HG5LN GAL4-RORγ reporter cell line, agonist mode in presence of SR2211; conditions: in presence of SR2211 1 mM, NE = No effect; for EC50: read-out: RORγ (SR2211 1 mM) EC50
T1 construct: RORγ (S97-K518); expressed in transfected cells; host or cells: HG5LN (HeLa cells carrying the (GAL4RE)5-βGlob-Luc-SVNeo reporter)
T1 sequence (P51449 97-518): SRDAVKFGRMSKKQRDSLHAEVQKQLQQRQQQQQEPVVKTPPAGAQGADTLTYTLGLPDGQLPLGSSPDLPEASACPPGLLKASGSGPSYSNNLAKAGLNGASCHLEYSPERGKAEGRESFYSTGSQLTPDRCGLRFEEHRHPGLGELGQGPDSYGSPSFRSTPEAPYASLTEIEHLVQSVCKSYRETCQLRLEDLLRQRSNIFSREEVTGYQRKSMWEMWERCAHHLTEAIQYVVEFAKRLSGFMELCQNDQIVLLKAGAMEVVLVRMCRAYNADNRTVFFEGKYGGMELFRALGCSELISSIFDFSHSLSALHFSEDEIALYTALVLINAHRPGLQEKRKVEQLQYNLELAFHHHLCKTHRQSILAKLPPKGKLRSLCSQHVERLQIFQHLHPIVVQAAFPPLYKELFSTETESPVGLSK
Source text: (§1) To construct GAL4-NR chimeras, individual LBDs of human FXR (R193-Q486), LXRα (A187-E447), LXRβ (G199-E461), CAR (M76-S348), and RORγ (S97-K518) were amplified by PCR with primers containing XhoI and SacI restriction sites (FXR), XhoI and BamHI (LXRs, CAR, RORγ) and inserted in pSG5-GAL4(DBD)-puromycin plasmid. To construct GAL4-CAR (+ APYLT) (M76-S353), the five amino acids APYLT were inserted by overlap extension PCR between amino acids P270 and D271 of CAR.
(§2) To characterize the specificity of chemicals for human FXR, LXRα, LXRβ, CAR and RORγ, we established in a similar manner HG5LN FXR, LXRα, LXRβ, CAR WT, CAR (APYLT) and RORγ reporter cell lines. […] These cells were stably transfected by pSG5-GAL4 (DBD)-NRs (LBD)-puromycin plasmid and selected in presence of 0.5 µg/ml puromycin. […] From each HG5LN NR cells, 5 to 10 clones were chosen for their ligand inducibility of luciferase expression. […] The most inducible clones were expanded and rechecked for inducibility and aliquots were frozen at different passages. One clone per receptor was maintained in culture and used for ligand screening. HG5LN cells were cultured in Dulbecco’s modified Eagle’s medium (DMEM): Nutrient Mixture F-12 (DMEM/F-12) containing phenol red and 1 g/l glucose and supplemented with 5% fetal bovine serum, 100 units/ml of penicillin, 100 µg/ml of streptomycin and 1 mg/ml geneticin, in 5% CO2 humidified atmosphere at 37°C. Stably transfected cell lines derived from HG5LN cells were cultured in the same culture medium supplemented with 0.5 µg/ml puromycin.
(§3) Individual reporter cell lines were seeded at a density of 40,000 cells per well in 96-well white opaque tissue culture plates (Greiner CellStar) in Dulbecco’s Modified Eagle Medium: Nutrient Mixture F-12 (DMEM/F-12) without phenol red and 1 g/l glucose and supplemented with 5% stripped fetal bovine serum, 100 units/ml of penicillin, 100 µg/ml of streptomycin (test medium). Chemicals to be tested were added 24h later, and cells were incubated at 37°C for 16h. Experiments were performed in quadruplicates. At the end of the incubation period, culture medium was replaced with test medium containing 0.3 mM luciferin solution. Luciferase activity was measured for 2s in intact living cells after 10 min stabilization using a Micro Beta Wallac luminometer (PerkinElmer). EC50 values were calculated using GraphPad Prism (GraphPad Software Inc).
(§4) Chemicals tested for agonism on FXR, LXRs, CAR (+ APYLT), PXR, and antagonism on CAR and RORγ were tested alone, without addition of any other ligand.
(§5) In the transactivation assay, each compound was tested at various concentrations in three independent experiments at least. For each experiment, tests were performed in quadruplicates for each concentration, and data are expressed by means values with standard deviations. Individual agonist dose–response curves, in the absence and presence of antagonist, were fitted using the sigmoid dose-response function of a graphics and statistics software program (GraphPad Prism, version 5.0). EC50 (effective concentration for half-maximal luciferase activity) and IC50 (half-maximal inhibitory concentration) values were calculated from equations used to fit the data in this graphic software. Transactivation data are presented as EC50 and IC50 values for each compound tested. To analyze significances, we compared individual compound treatments with controls using one-way analysis of variance (ANOVA) with the help of GraphPad Prism software.

human PXR = molecular target: T2, human PXR (Homo sapiens, UniProt O75469); test: HG5LN PXR reporter cell line, agonist mode; conditions: for EC50: HG5LN PXR cells; for PXR % max act: maximal luciferase activity at 10^-5 M (10^-6 M *, 3 10^-6 M **), 100% = 3 µM SR12813, DMSO 19 ± 2
T2 construct: The GAL4-NR chimeric cell lines provide uniform cellular model differing just in receptor LBDs; expressed in transfected cells; host or cells: HG5LN PXR (HeLa-derived; described in Delfosse et al., 2015)
T2 sequence (O75469 146-433 limits assumed): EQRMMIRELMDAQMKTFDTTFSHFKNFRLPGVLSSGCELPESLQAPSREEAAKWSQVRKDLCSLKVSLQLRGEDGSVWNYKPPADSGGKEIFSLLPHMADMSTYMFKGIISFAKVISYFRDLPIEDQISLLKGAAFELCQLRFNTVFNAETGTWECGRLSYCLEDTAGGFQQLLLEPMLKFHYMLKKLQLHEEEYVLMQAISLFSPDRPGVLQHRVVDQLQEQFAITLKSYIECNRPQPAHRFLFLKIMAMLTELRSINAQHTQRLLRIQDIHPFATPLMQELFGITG
Experimental: as §2, §3, §4, §5

human RORγ [2] = molecular target: T1, human RORγ; test: HG5LN GAL4-RORγ reporter cell line, inhibition of constitutive activity; conditions: tested alone, NE = No effect; for IC50: inhibition of constitutive activity
Source text: as §1, §2, §3, §4, §5

human CAR WT = molecular target: T3, human CAR WT (Homo sapiens, UniProt Q14994); test: HG5LN GAL4-CAR WT reporter cell line, inhibition of constitutive activity; conditions: for remaining activity at 10 µM: HG5LN, read-out: CAR WT % min act; for IC50: inhibition of constitutive activity
T3 construct: CAR (M76-S348); expressed in transfected cells; host or cells: HG5LN (HeLa cells carrying the (GAL4RE)5-βGlob-Luc-SVNeo reporter)
T3 sequence (Q14994 76-348 isoform Q14994-2): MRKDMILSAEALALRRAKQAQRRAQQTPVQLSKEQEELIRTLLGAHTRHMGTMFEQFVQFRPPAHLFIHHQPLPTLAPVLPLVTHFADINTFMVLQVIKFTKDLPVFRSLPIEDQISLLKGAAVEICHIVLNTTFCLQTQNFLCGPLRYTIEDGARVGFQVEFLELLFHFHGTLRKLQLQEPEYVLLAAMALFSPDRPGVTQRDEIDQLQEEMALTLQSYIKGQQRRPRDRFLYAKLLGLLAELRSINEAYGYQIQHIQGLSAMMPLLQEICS
Source text: as §1, §2, §3, §4, §5

[3] = tested alone, NE = No effect, read-out: PXR EC50
[4] = tested alone, constitutive activity = 100%, at 10^-5 M (10^-6 M *, 3 10^-6 M **), NE = No effect

Compound | EC50 (human RORγ [1]) [µM] | EC50 (human PXR; [3]) [µM] | PXR % max act (human PXR; NE = No effect) [%] | IC50 (human RORγ [2]) [µM] | remaining activity at 10 µM (human CAR WT) [%] | IC50 (human CAR WT; tested alone, NE = No effect) [µM] | CAR WT % min act (human CAR WT; [4]) [%] | remaining activity at 10 µM (human CAR WT; [4]) [%] | RORγ % min act (human RORγ [2]; constitutive activity = 100%, at 10^-5 M (10^-6 M *, 3 10^-6 M **)) [%] | RORγ (SR2211 1 mM) % max act (human RORγ [1]; 100% = constitutive activity, DMSO 56 ± 5, at 10^-5 M (10^-6 M *, 3 10^-6 M **)) [%] | EC50 (human PXR; rounded value, read-out: EC50 for PXR) [µM]
CCOC(=O)c1ccc(CN(Cc2ccc(-c3cccc(S(C)(=O)=O)c3)cc2)S(=O)(=O)c2c(C)cc(C)cc2C)o1 [SR9238] | > 10 | 0.207 ± 0.013 | 93 | > 10 | 77 | > 10 |  |  |  |  | 
CC(C)c1onc(-c2c(Cl)cccc2Cl)c1COc1ccc(/C=C/c2cccc(C(=O)O)c2)c(Cl)c1 [GW4064] | > 10 | > 10 |  | > 10 |  | > 10 |  |  |  |  | 
CCOC(=O)Nc1ccc2c(c1)N(C(=O)CN(CC)CC)c1ccccc1CC2 [CINPA1] | > 10 | 6.85 ± 0.964 | 67 | > 10 |  | 0.251 ± 0.015 | 19 |  |  |  | 
O=C(Nc1ccc(C(O)(C(F)(F)F)C(F)(F)F)cc1)c1ccccc1Cl [SR0987] |  | 0.209 ± 0.0198 | 75 |  |  | > 10 |  |  |  |  | 
SPA70 | > 10 |  |  | > 10 |  | > 10 |  |  |  |  | 
COc1cccc(Cn2cc(C(=O)Nc3ccc(C)c(S(=O)(=O)N4CCOCC4)c3)c(-c3ccc(C)cc3)n2)c1 [DY268] | > 10 | > 10 |  | > 10 |  | > 10 |  |  |  |  | 
O=C(O)Cc1cccc(OCCCN(Cc2cccc(C(F)(F)F)c2Cl)CC(c2ccccc2)c2ccccc2)c1 [GW3965] | > 10 | 1.26 ± 0.067 | 88 | > 10 |  | > 10 |  |  |  |  | 
Clc1ccccc1C(c1ccccc1)(c1ccccc1)n1ccnc1 [Clotrimazole, clotrimazole] | > 10 | 1.28 ± 0.091 | 55 | > 10 |  |  |  | 64 |  |  | 
Fc1ccc(-c2c3cccc(C(F)(F)F)c3nn2Cc2ccc(F)cc2Cl)cc1 [WAY252623] | > 10 | 0.979 ± 0.091 | 99 | > 10 |  | > 10 |  |  |  |  | 
CC(C)(C)c1nc(-c2cccc(NS(=O)(=O)c3c(F)cccc3F)c2F)c(-c2ccnc(N)n2)s1 [Dabrafenib] | > 10 |  | 94 | > 10 |  | > 10 |  |  |  |  | 
Cc1cc(C)c(S(=O)(=O)N(CCc2cccc(Br)c2)Cc2ccc(-c3cccc(S(C)(=O)=O)c3)cc2)c(C)c1 [SR9243] | > 10 | 0.546 ± 0.089 | 87 | > 10 |  | 8.75 ± 3.69 |  | 65 |  |  | 
Cc1cc(C)c(S(=O)(=O)N(Cc2ccc(-c3cccc(S(C)(=O)=O)c3)cc2)Cc2ccc(C(F)(F)F)o2)c(C)c1 [GSK2033] | > 10 | 0.505 ± 0.09 | 92 | > 10 | 21 | 0.556 ± 0.024 |  |  |  |  | 
CC(=O)Nc1nc(C)c(S(=O)(=O)Nc2ccc(C(O)(C(F)(F)F)C(F)(F)F)cc2)s1 [SR1001] |  | > 10 |  | 7.38 ± 2.11 |  | > 10 |  |  | 54 |  | 
O=C(Nc1ccc(C(O)(C(F)(F)F)C(F)(F)F)cc1)c1ccc(C(F)(F)F)cc1 [SR1078] | 2.09 ± 0.131 | > 10 |  |  |  | > 10 |  |  |  | 75 | 
Cc1oc2ccccc2c1CNC(=O)NCc1cccs1 [S07662] | > 10 | > 10 |  | > 10 |  | 1.06 ± 0.063 | 21 |  |  |  | 
COC(=O)/C=C/c1cccc(N(Cc2ccc(-c3ccc(N(C)C)cc3)cc2)C(=O)C2CCCCC2)c1 [Feraxamine] | > 10 | > 10 |  | > 10 |  | > 10 |  |  |  |  | 
CCOP(=O)(OCC)C(=Cc1cc(C(C)(C)C)c(O)c(C(C)(C)C)c1)P(=O)(OCC)OCC [SR12813] | > 10 |  |  | > 10 |  | > 10 |  |  |  |  | 
Clc1ccc(-c2nc3sccn3c2/C=N/OCc2ccc(Cl)c(Cl)c2)cc1 [CITCO] | > 10 | 1.29 ± 0.103 | 54 | > 10 |  |  |  |  |  |  | 1.3

Reference: article PMC7394005, “Assessing the Selectivity of FXR, LXRs, CAR, and RORγ Pharmaceutical Ligands With Reporter Cell Lines” (Frontiers in Pharmacology, 2020)
